According to PMC9321663, “The DevTox Germ Layer Reporter Platform: An Assay Adaptation of the Human Pluripotent Stem Cell Test” (Toxics, 2022):
Read-outs that look alike come from different tables or passages of the source.

Experiments:
[1] = tested on: SOX17 (endoderm marker) in RUES2-GLR cells; test: DevTox GLR-Endo assay: increase in percent SOX17-positive cells (AEID 3093, Sox17_up); type: cell-based, human; design: tp (winning model): unit not given here; settings: for Emax: Homo sapiens; for HIT−CALL: tcpl plot AEID3093, COFF 20.3
Description: (§1) The total test chemical incubation period was 48 h.
(§2) (Supplementary Materials).

[2] = cited from earlier work; for Classification: developmental toxicant classification (Teratogen / Non-Teratogen) of reference and training chemicals, ref DOI per chemical: 10.1093/toxsci/kft239, 10.1093/toxsci/kfaa014, 10.1177/026119290203000204, 10.1038/s41598-020-59542-x; for DT Class.: developmental toxicant classification; for Development Toxicant Classification: Table S2
[3] = tested on: SOX17 (endoderm marker) in RUES2-GLR cells; test: DevTox GLR-Endo assay: decrease in percent SOX17-positive cells (AEID 3094, Sox17_dn); settings: for Emax / AC50: Homo sapiens; for Hit Call: Table S2, SOX17-positive cells, cutoff 3*bmad; for HIT−CALL: tcpl plot AEID3094, COFF 20.3; for DevTox-GLR Endo ACC: activity concentration at cutoff, SOX17-positive cells
Description: as §1
(§3) Assay plate controls included non-differentiated pluripotent cells maintained in complete Essential 8 Flex medium (baseline control), endoderm differentiated cells (differentiation control), endoderm differentiated cells treated with DMSO (0.2%) (solvent control), and TGF-ß receptor inhibitor SB431542 (1 µM)-treated cells (developmental toxicant-positive control) (Figure S3). All experiments were completed with a minimum of four biological replicates (n = 4).
as §2

[4] = tested on: BRA (mesoderm marker) in RUES2-GLR cells; test: DevTox GLR-Endo assay: increase in percent BRA-positive cells (AEID 3096, Bra_up); type: cell-based, human; settings: for HIT−CALL: tcpl plot AEID3096, COFF 0.774; for MAX_MEAN: tcpl plot AEID3096, maximum mean response; for MAX_MED: tcpl plot AEID3096, maximum median response
Description: as §1, §2

[5] = tested on: SOX2 (ectoderm and pluripotency marker) in RUES2-GLR cells; test: DevTox GLR-Endo assay: increase in percent SOX2-positive cells (AEID 3095, Sox2_up); settings: for MAX_MEAN: tcpl plot AEID3095, maximum mean response; for MAX_MED: tcpl plot AEID3095, maximum median response; for AC50 / Emax: Homo sapiens; for AC50: read-out: ga (winning model); for Emax: read-out: tp (winning model);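 as to all read-outs here: cells exposed to test chemicals for 48 h in total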
Description: RUES2-GLR cells were seeded 24 h prior to differentiation initiation into vitronectin-coated 384-well CellCarrier Ultra plates (10.6 mm^2/well) (Perkin Elmer, Waltham, MA, USA). Vitronectin (0.5 µg/cm^2)-coated plates were prepared and stored at 4 °C, wrapped in parafilm, for less than seven days and incubated at room temperature for one hour prior to cell seeding. […] Cells were dispensed into 20 µL coating solution using a Certus FLEX Micro Dispenser (Fritz Gyger, Gwatt, Switzerland) with a 0.45 µm valve to a final volume of 100 µL and density of 2.8 × 10^3 cells per well.
Following a 24 h post-seeding incubation period (Time = 0 h) (Figure 3A), directed endoderm differentiation was initiated with the PSC Definitive Endoderm Induction kit (Gibco, Waltham, MA, USA). […] A target dilution series (0.002–200 µM) was generated by dispensing variable nanoliter volumes of test chemical and backfilling with a complementary volume of DMSO using Echo Cherry Pick software (v.1.6.2). Wells were backfilled with 50 µL of induction medium using a Certus FLEX Micro Dispenser with 0.45 µm valves. Test compound treatment plates were mixed on a Multi-Microplate Genie mixer at 700 rpm for 10 min and subsequently incubated for two hours in a humidified atmosphere at 37 °C with 5% CO2. Each chemical treatment (0 h–Medium A; 24 h–Medium B) were prepared the day of treatment. At 0 h, cell culture medium was aspirated from the assay plate at a rate of 1 µL/s and 40 µL of Medium A ± test chemical applied using a CyBio FeliX automated liquid handler (Analytik Jena, Jena, Germany). At 24 h, conditioned cell culture medium was aspirated and 40 µL of Medium B ± test chemical was applied. At 48 h, cells were prepared for high-content image acquisition by fixation and nuclear staining. The total test chemical incubation period was 48 h. For fixation, a 4% paraformaldehyde (PFA) solution was achieved by adding 40 µL of 8% PFA directly to cell culture medium using a CyBio FeliX liquid handler. […] Following an additional 30 min incubation period at room temperature, staining solution was aspirated, 50 µL of DPBS was added, and plate sealed with MicroAmp Optical Adhesive Film (Applied Biosystems, Waltham, MA, USA).
Images were acquired within 12 h post-fixation using an Opera Phenix High-Content Screening System (Perkin Elmer, Waltham, MA, USA). […] Cell identification and mean biomarker fluorescent intensities were calculated using Harmony image analysis software (Perkin Elmer, Waltham, MA, USA). Cell nuclei were identified using the object classifying algorithm C of the software with border objects excluded using the “Remove Border Objects” feature. Mean cell biomarker intensity statistics were gathered from each object and exported for further analysis using a custom script in Python version 3.7.4 [61] […] For each plate, pluripotent-negative control wells were used to establish baseline intensity values and a cutoff threshold for determining SOX17 and BRA biomarker-positive cells. Endoderm differentiated positive control wells were used to establish baseline intensity values and a cutoff threshold for SOX2-positive cells. Cells with a mean intensity five times the baseline median absolute deviation (5*bmad) above the median cell intensity for plate-based control population technical replicates were considered positive. Well-based cell counts, reflected by the sum of total counted objects from all fields, were used to calculate the percent responders for each respective biomarker and evaluate cytotoxicity. Well-level results were exported for data modeling in the ToxCast Pipeline.
The ToxCast Pipeline R package (tcpl v.2.0.2) was used to normalize, fit, and qualify concentration-response screening data [63].

RUES2-GLR cells = test: DevTox GLR-Endo assay: decrease in total cell count, cytotoxicity (AEID 3098, CellCount_dn); settings: for Emax: Homo sapiens, read-out: Cell Count % Max Inhibition; for Cell Count ACC / DevTox-GLR Endo CC: human, 48 h
Description: as §1, §3, §2

H9 human ESC line = settings: cited from earlier work
in vitro = settings: human
Description: as §1, §3, §2

[6] = tcpl plot AEID3093, maximum mean response, read-out: MAX_MEAN
[7] = tcpl plot AEID3093, maximum median response, read-out: MAX_MED
[8] = chemicals common with quickPredict
[9] = read-out: DevTox % Max Inhibition
[10] = Table S2, percent SOX17-positive cells, 48 h exposure
[11] = 48 h, read-out: DevTox-GLR Endo AC50 (µM), SOX17 half-maximal activity concentration, 48 h exposure
[12] = read-out: ga (winning model), tcpl plot AEID3094, gain parameter of winning curve fit (log concentration, µM axis), hit calls only (converted)
[13] = cytotoxicity half-maximal concentration

SMILES | Emax [1, 6] [%] | Emax [1, 7] [%] | HIT−CALL [1] | Classification [2] | DT Class. [2, 8] | Emax [3, 9] [%] | Emax ([3]; read-out: MAX_MEAN) [%] | Emax ([3]; read-out: MAX_MED) [%] | Hit Call [3] | DevTox ACC [3, 10] [µM] | HIT−CALL [3] | MAX_MEAN [5] [Percent Activity] | MAX_MED [5] [Percent Activity] | Emax (RUES2-GLR cells) [%] | Cell Count ACC (RUES2-GLR cells) [µM] | Development Toxicant Classification [2] | AC50 [3, 11] [µM] | AC50 [3, 12] [µM] | hPST TC50 (H9 human ESC line; [13]) [µM] | hPST TC50 (H9 human ESC line; hPST cytotoxicity) [µM] | also measured
CCCc1cc(=O)[nH]c(=S)[nH]1 | 7.44 | 8.97 | 0 | Teratogen | Pos | 16.6 | 14.7 | 16.6 | Negative | >200 | 0 | 0.595 | 0.601 | 12.9 | >200 |  |  |  |  |  | hit call designation (in words) ([3]; DevTox GLR-Endo prediction against developmental toxicant classification): false negative; Emax ([3]; read-out: maximum observed effect level class (% max inhibition)): 0 to 20%; HIT−CALL [4]: 1; MAX_MEAN [4]: 0.944 Percent Activity; MAX_MED [4]: 0.969 Percent Activity
COc1cccc2c1C(=O)c1c(O)c3c(c(O)c1C2=O)C[C@@](O)(C(=O)CO)C[C@@H]3O[C@H]1C[C@H](N)[C@H](O)[C@H](C)O1 [Doxorubicin] | 50.4 | 51.7 | 1 |  |  |  |  |  | Positive | 0.001242 | 1 | 9.13 | 8.86 | 93.9 | 0.001329 | Positive | 0.0019 | 0.00186 | <0.3 | < 0.3 | tp (winning model) ([1]; tcpl plot AEID3093, top of winning curve fit, hit calls only): 48.7; DT Class. ([2]; chemicals common with hPST): Pos; AC50 [5]: 0.64 µM; Emax [5]: 19.8%; CC50 at 48 h (in vitro): 0.0033 µM
CC/C(=C(/CC)c1ccc(O)cc1)c1ccc(O)cc1 [Diethylstilbestrol] | 6.93 | 6.73 | 0 | Teratogen | Pos | 101 | 101 | 101 | Positive |  | 1 | 6.09 | 4.84 | 95.7 | 0.5959 | Positive | 0.64 | 0.644 | 4.4 | 4.4 | DT Class. ([2]; chemicals common with hPST): Pos; Emax ([3]; read-out: tp (winning model)): 101%; DevTox-GLR Endo ACC ([3]; 48 h exposure): 0.54 µM; AC50 [5]: 2.13 µM; Emax [5]: 3.84%; DevTox-GLR Endo CC (RUES2-GLR cells): 0.60 µM; CC50 at 48 h (in vitro): 0.71 µM
NNC(=O)c1ccncc1 [Isoniazid] | 14 | 13.9 | 0 | Non-Teratogen | Neg | 3.99 | 3.77 | 3.99 | Negative | >200 | 0 | 0.685 | 0.538 | 7.42 | >200 | Negative |  |  |  |  | HIT−CALL [4]: 0; MAX_MEAN [4]: 0.794 Percent Activity; MAX_MED [4]: 0.781 Percent Activity
O=C1NC(=O)C(c2ccccc2)(c2ccccc2)N1 | 11.2 | 11.7 | 0 | Teratogen | Pos | 21 | 19.1 | 21 | Positive | 201.562 | 1 | 0.502 | 0.532 | 22.6 | 191.824 | Positive |  | 191 |  |  | Emax ([3]; read-out: tp (winning model)): 32.6%; DevTox-GLR Endo ACC ([3]; 48 h exposure): 201.56 µM; HIT−CALL [4]: 0; MAX_MEAN [4]: 0.943 Percent Activity; MAX_MED [4]: 0.909 Percent Activity; DevTox-GLR Endo CC (RUES2-GLR cells): 191.82 µM
CN1CCN2c3ccccc3Cc3ccccc3C2C1 (centres unmarked) [Mianserin] | 2.7 | 3.98 | 0 | Teratogen |  | 101 | 101 | 101 | Positive |  | 1 | 4.94 | 5.45 | 97.7 | 18.6008 | Positive | 34.9 | 34.7 | 60 | 60 | DT Class. ([2]; chemicals common with hPST): Pos; DevTox ACC ([3]; 48 h): 13.5618 µM; Emax ([3]; read-out: tp (winning model)): 122%; AC50 [5]: 85.1 µM; Emax [5]: 13.7%; CC50 at 48 h (in vitro): 33.6 µM
COc1cc2ncnc(Nc3ccc(F)c(Cl)c3)c2cc1OCCCN1CCOCC1 [Gefitinib] | 10.5 | 7.83 | 0 |  |  |  | 102 | 101 |  | 4.584 |  | 5.99 | 4.85 |  | 5.08 |  | 5.75 | 5.75 | 10 | 10 | Emax ([3]; read-out: tp (winning model)): 101%; AC50 [5]: 6.35 µM; Emax [5]: 3.17%; CC50 at 48 h (in vitro): 6.6 µM
